Laboratory results reported in US8637523B2, “Compounds for the reduction of beta-amyloid production” (Bristol-Myers Squibb Company, priority 2010, dated 2014).

test system: Aβ42; assay: Cellular assay for inhibition of Aβ1-42 production (H4 APP751 SWE clone 8.20); type: cell-based; conditions: 19 h, H4 APP751 SWE clone 8.20 cells, 19 h incubation; read-out: Activity Rating (Aβ42 cellular IC50), class symbol
Summary of the method: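 Viewlux signal read-out; IC50 by curve fit. Sandwich: 565 anti-Aβ42 neoepitope (Wallac conjugate, 0.8 ng/well) + 26D6 anti-N-terminus (APC, 75 ng/well), in Tris-HCl 40 mM pH 7.4/0.2% BSA, o/n 4 °C. Cells exposed to compound 19 h, 37 °C, 5% CO2.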

Row | IC50 | Structure (SMILES)
1 | 10 to 100 nM | Cc1ncn(-c2ccc3cc2OC/C=C\CN(C)c2nc(nc4c2CCC4c2ccc(F)cc2F)N3)n1 (stereo not shown) [Example 57B, (11Z)-18-(2,4-difluorophenyl)-14-methyl-7-(3-methyl-1H-1,2,4-triazol-1-yl)-10,13,14,16,17,18-hexahydro-15,2-(azeno)-8,4-(metheno)cyclopenta[h][1,6,10,12]oxatriazacycloheptadecine]
2 | < 10 nM | Cc1ncn(-c2ccc3cc2OCCCNc2nc(nc4c2CCC4c2ccc(F)cc2F)N3)n1 (stereo not shown) [Example 63A, 17-(2,4-difluorophenyl)-7-(3-methyl-1H-1,2,4-triazol-1-yl)-11,12,13,15,16,17-hexahydro-10H-14,2-(azeno)-8,4-(metheno)cyclopenta[g][1,5,9,11]oxatriazacyclohexadecine]
3 | 10 to 100 nM | Cc1ncn(-c2ccc3cc2OCCCCNc2nc(nc4c2CCC4c2ccc(F)cc2F)N3)n1 (stereo not shown) [Example 64B, 18-(2,4-difluorophenyl)-7-(3-methyl-1H-1,2,4-triazol-1-yl)-10,11,12,13,14,16,17,18-octahydro-15,2-(azeno)-8,4-(metheno)cyclopenta[h][1,6,10,12]oxatriazacycloheptadecine]

Continued, compound first:

Row | Structure (SMILES) | IC50
4 | Cc1ncn(-c2ccc3cc2OCCCCN(C)c2nc(nc4c2CCC4c2ccccc2)N3)n1 (stereo not shown) [Example 50B, 14-methyl-7-(3-methyl-1H-1,2,4-triazol-1-yl)-18-phenyl-10,11,12,13,14,16,17,18-octahydro-15,2-(azeno)-8,4-(metheno)cyclopenta[h][1,6,10,12]oxatriazacycloheptadecine] | 10 to 100 nM
5 | Cc1ncn(-c2ccc3cc2OCCN(C)CCNc2nc(nc4c2CCC4c2ccc(F)cc2)N3)n1 (stereo not shown) [Example 56B, 19-(4-fluorophenyl)-12-methyl-7-(3-methyl-1H-1,2,4-triazol-1-yl)-11,12,13,14,15,17,18,19-octahydro-10H-16,2-(azeno)-8,4-(metheno)cyclopenta[i][1,4,7,11,13]oxatetraazacyclooctadecine] | 10 to 100 nM
6 | Cc1ncn(-c2ccc3cc2OCCCN(C)c2nc(nc4c2CCC4c2ccccc2)N3)n1 (stereo not shown) [Example 60B, 13-methyl-7-(3-methyl-1H-1,2,4-triazol-1-yl)-17-phenyl-11,12,13,15,16,17-hexahydro-10H-14,2-(azeno)-8,4-(metheno)cyclopenta[g][1,5,9,11]oxatriazacyclohexadecine] | 10 to 100 nM
7 | Cc1ncn(-c2ccc3cc2OCCCCN(C)c2nc(nc4c2CCC4c2ccc(F)cc2F)N3)n1 (stereo not shown) [Example 61B, 18-(2,4-difluorophenyl)-14-methyl-7-(3-methyl-1H-1,2,4-triazol-1-yl)-10,11,12,13,14,16,17,18-octahydro-15,2-(azeno)-8,4-(metheno)cyclopenta[h][1,6,10,12]oxatriazacycloheptadecine] | 10 to 100 nM
8 | Cc1ncn(-c2ccc3cc2OCCCCCc2nc(nc4c2CCC4c2ccccc2)N3)n1 (stereo not shown) [Example 62A, 7-(3-methyl-1H-1,2,4-triazol-1-yl)-18-phenyl-10,11,12,13,14,16,17,18-octahydro-15,2-(azeno)-8,4-(metheno)cyclopenta[h][1,10,12]oxadiazacycloheptadecine] | < 10 nM

same assay, conditions: 19 h, H4 APP751 SWE clone 8.20 cells, 19 h incubation; unit inferred; read-out: Activity Rating (Aβ42 cellular IC50), numeric value

Row | IC50 | Structure (SMILES)
9 | 5.5 nM | Cc1ncn(-c2ccc3cc2OC/C=C\CN(C)c2nc(nc4c2CCC4c2ccc(F)cc2F)N3)n1 (stereo not shown) [Example 57A, (11Z)-18-(2,4-difluorophenyl)-14-methyl-7-(3-methyl-1H-1,2,4-triazol-1-yl)-10,13,14,16,17,18-hexahydro-15,2-(azeno)-8,4-(metheno)cyclopenta[h][1,6,10,12]oxatriazacycloheptadecine]
10 | 4.1 nM | Cc1ncn(-c2ccc3cc2OCCCCN(C)c2nc(nc4c2CCC4c2ccc(F)cc2F)N3)n1 (stereo not shown) [Example 61A, 18-(2,4-difluorophenyl)-14-methyl-7-(3-methyl-1H-1,2,4-triazol-1-yl)-10,11,12,13,14,16,17,18-octahydro-15,2-(azeno)-8,4-(metheno)cyclopenta[h][1,6,10,12]oxatriazacycloheptadecine]
11 | 22 nM | Cc1ncn(-c2ccc3cc2OCCCCCc2nc(nc4c2CCC4c2ccccc2)N3)n1 (stereo not shown) [Example 62B, 7-(3-methyl-1H-1,2,4-triazol-1-yl)-18-phenyl-10,11,12,13,14,16,17,18-octahydro-15,2-(azeno)-8,4-(metheno)cyclopenta[h][1,10,12]oxadiazacycloheptadecine]
12 | 25 nM | Cc1ncn(-c2ccc3cc2OCCCNc2nc(nc4c2CCC4c2ccc(F)cc2F)N3)n1 (stereo not shown) [Example 63B, 17-(2,4-difluorophenyl)-7-(3-methyl-1H-1,2,4-triazol-1-yl)-11,12,13,15,16,17-hexahydro-10H-14,2-(azeno)-8,4-(metheno)cyclopenta[g][1,5,9,11]oxatriazacyclohexadecine]
13 | 5.3 nM | Cc1ncn(-c2ccc3cc2OCCCCNc2nc(nc4c2CCC4c2ccc(F)cc2F)N3)n1 (stereo not shown) [Example 64A, 18-(2,4-difluorophenyl)-7-(3-methyl-1H-1,2,4-triazol-1-yl)-10,11,12,13,14,16,17,18-octahydro-15,2-(azeno)-8,4-(metheno)cyclopenta[h][1,6,10,12]oxatriazacycloheptadecine]

same assay, conditions: H4 APP751 SWE clone 8.20 cells, 19 h incubation; read-out: Activity Rating (Aβ42 cellular IC50), class symbol

Row | IC50 | Structure (SMILES)
14 | 10 to 100 nM | Cc1ncn(-c2ccc3cc2OC/C=C/CNc2nc(nc4c2CCC4c2ccc(F)cc2F)N3)n1 (stereo not shown) [Example 52B, (11E)-18-(2,4-difluorophenyl)-7-(3-methyl-1H-1,2,4-triazol-1-yl)-10,13,14,16,17,18-hexahydro-15,2-(azeno)-8,4-(metheno)cyclopenta[h][1,6,10,12]oxatriazacycloheptadecine]
15 | < 10 nM | Cc1ncnn1-c1ccc2cc1OCC=CCNc1nc(nc3c1CCC3c1ccc(F)cc1F)N2 (stereo not shown) [Example 54A, (11E)-18-(2,4-difluorophenyl)-7-(5-methyl-1H-1,2,4-triazol-1-yl)-10,13,14,16,17,18-hexahydro-15,2-(azeno)-8,4-(metheno)cyclopenta[h][1,6,10,12]oxatriazacycloheptadecine]
16 | 10 to 100 nM | Cc1ncnn1-c1ccc2cc1OCC=CCNc1nc(nc3c1CCC3c1ccc(F)cc1F)N2 (stereo not shown) [Example 54B, (11E)-18-(2,4-difluorophenyl)-7-(5-methyl-1H-1,2,4-triazol-1-yl)-10,13,14,16,17,18-hexahydro-15,2-(azeno)-8,4-(metheno)cyclopenta[h][1,6,10,12]oxatriazacycloheptadecine]
17 | < 10 nM | Cc1ncn(-c2ccc3cc2OCC=CCCc2nc(nc4c2CCC4c2ccccc2)N3)n1 (stereo not shown) [Example 59A, (11E)-7-(3-methyl-1H-1,2,4-triazol-1-yl)-18-phenyl-10,13,14,16,17,18-hexahydro-15,2-(azeno)-8,4-(metheno)cyclopenta[h][1,10,12]oxadiazacycloheptadecine]

same assay, conditions: H4 APP751 SWE clone 8.20 cells, 19 h incubation; unit inferred; read-out: Activity Rating (Aβ42 cellular IC50), numeric value

Row | IC50 | Structure (SMILES)
18 | 11 nM | Cc1ncn(-c2ccc3cc2OC/C=C/CNc2nc(nc4c2CCC4c2ccc(F)cc2F)N3)n1 (stereo not shown) [Example 52A, (11E)-18-(2,4-difluorophenyl)-7-(3-methyl-1H-1,2,4-triazol-1-yl)-10,13,14,16,17,18-hexahydro-15,2-(azeno)-8,4-(metheno)cyclopenta[h][1,6,10,12]oxatriazacycloheptadecine]
19 | 32 nM | Cc1ncn(-c2ccc3cc2OCC=CCCc2nc(nc4c2CCC4c2ccccc2)N3)n1 (stereo not shown) [Example 59B, (11E)-7-(3-methyl-1H-1,2,4-triazol-1-yl)-18-phenyl-10,13,14,16,17,18-hexahydro-15,2-(azeno)-8,4-(metheno)cyclopenta[h][1,10,12]oxadiazacycloheptadecine]
